The subject of assay [1] is Pyricularia oryzae (rice blast). In words: whole plant or invertebrate. Type of assay: in vivo. Particulars: Pyricularia oryzae, foliar, read-out: PYRIOR disease control, host rice; foliar spray; 400 ppm (+++: 100 ppm).
For assay [2], the system named is aster leafhopper (Macrosteles fascifrons). As to the kind of experiment: whole plant or invertebrate. The settings on record: Macrosteles fascifrons, 24 h, read-out: ALH percent mortality. Type of assay: in vivo. As for the experimental part: (§1) The compounds identified in Table I were tested for miticidal and insecticidal activity against eight species. The following abbreviations are used in the Table III:
ALH refers to aster leafhopper
(§2) In conducting evaluations of insecticidal activity, each test compound was formulated as a 400 ppm solution, and this solution was then diluted with water to give lesser concentrations. The 400 ppm solution was prepared by combining 19.2 mL of 0.05% solution of Tween 20 (polyoxyethylene (20) sorbitan monolaurate) in water with a solution of 8 mg of the compound in 0.8 mL of acetone/EtOH (9/1).
Activity against aster leafhopper (Macrosteles fascifrons) was tested as follows. The test was run using concentrations of 400 ppm and 50 ppm. One ounce plastic cups containing a cotton wick was sprayed with 0.4 mL of formulated material using a flat-fan nozzle. The excess moisture was allowed to evaporate. Then five to ten carbon dioxide anesthetized adult leafhoppers were added to each cup. The cups were capped and held at room temperature for 24 hours. Percent mortality was then determined.

Assay [3] concerns beet armyworm (Spodoptera exiqua). As to the kind of experiment: Activity against beet armyworm. In kind it is in vivo. Particulars: Spodoptera, 144 h, 6 days, read-out: BAW activity (rated on live and dead larvae and size of live larvae). As for the experimental part: as §1
BAW refers to beet armyworm
as §2
Activity against beet armyworm (Spodoptera exiqua) was evaluated as follows. The test is run using concentrations of 400 ppm and 50 ppm. A general purpose lepidoptera artificial diet was diluted to half strength with a 5% non nutritive agar. 8 mL of this diet material was dispensed into one ounce diet cups. One hour prior to treatment, 35 to 40 eggs were dispensed onto the diet surface. The cups were then sprayed with formulated material through a flat-fan nozzle. Treated cups were air dried prior to sealing with plastic caps. The cups were held for 6 days at room temperature. Activity was then rated based on the total number of live and dead larvae, and on the size of live larvae.

The subject of assay [4] is Southern corn rootworm (Diabrotica undecimpuctata howardi Barber). In words: whole plant or invertebrate. In kind it is in vivo. Particulars: 400 ppm, soil concentration of 24 ppm, 3-4 days, read-out: SCRW mortality. Here is the method:
as §1
SCRW refers to southern corn rootworm
as §2
Activity on Southern corn rootworm (Diabrotica undecimpuctata howardi Barber) was evaluated by adding one mL of test solution containing a predetermined concentration of test compound to a cup containing a kernel of corn in 16 g of sterile soil. This produces a soil concentration of 24 ppm. After 1.5 to 2 hours of drying, five 4th instar corn rootworm larvae were added to the individual cups. Mortality was measured at 3-4 days by emptying the cup onto a pan and inspecting the soil for live rootworms.

The test system of assay [5] is tobacco budworm (Heliothis virescens). As to the kind of experiment: Activity against tobacco budworm. Type of assay: in vivo. The settings on record: Heliothis virescens, 144 h, 6 days, read-out: TBW activity (rated on live and dead larvae and size of live larvae). As for the experimental part: as §1
TBW refers to tobacco budworm
as §2
Activity against tobacco budworm (Heliothis virescens) was evaluated as follows. A general purpose lepidoptera artificial diet was diluted to half strength with a 5% non nutritive agar. 8 mL of this diet material was dispensed into each one ounce diet cup. One hour prior to treatment 18 to 20 eggs were dispensed onto the diet surface. The cups were then sprayed with formulated material through a flat-fan nozzle. The test was run using concentrations of 400 ppm and 50 ppm. Treated cups were air dried prior to sealing with plastic caps. The cups were held for 6 days at room temperature. Activity was then rated based on the total number of live and dead larvae, and on the size of live larvae.

Assay [6] deals with Southern corn rootworm (Diabrotica undecimpuctata howardi Barber). In words: whole plant or invertebrate. In kind it is in vivo. The settings on record: 3-4 days, read-out: SCRW mortality.
For assay [7], the system named is cotton aphid (Aphis gossypii). In words: whole plant or invertebrate. Particulars: 72 h; for mortality at 50 ppm: read-out: CA activity (percent based on aphids present in plants sprayed with solvent alone), 50 ppm, squash plants, three days after treatment; for mortality at 400 ppm: read-out: CA activity (percent based on aphids present in plants sprayed with solvent alone), 400 ppm, squash plants, three days after treatment.

The subject of assay [8] is two spotted spider mite (Tetranychus urticae). In words: whole plant or invertebrate. The settings on record: 72 h; for mortality at 400 ppm: read-out: TSSM activity (percent based on mites present in plants sprayed with solvent alone), 400 ppm, squash plants, three days after treatment; for mortality at 50 ppm: read-out: TSSM activity (percent based on mites present in plants sprayed with solvent alone), 50 ppm, squash plants, three days after treatment.

For assay [9], the system named is Plasmopara viticola (downy mildew). In words: Foliar spray fungicide test, Plasmopara viticola (downy mildew) on grape. The settings on record: Plasmopara viticola, foliar, read-out: PLASVI disease control.
The subject of assay [10] is Leptosphaeria nodorum (glume blotch). In words: Foliar spray fungicide test, Leptosphaeria nodorum (glume blotch) on wheat. Particulars: Parastagonospora nodorum, in Triticum aestivum, foliar, read-out: LETPNO disease control, host wheat, 400 ppm (+++: 100 ppm).
Assay [11] concerns Puccinia recondita tritici (leaf rust). In words: Foliar spray fungicide test, Puccinia recondita tritici (leaf rust) on wheat. Particulars: Puccinia recondita, in Triticum aestivum, foliar, read-out: PUCCRT disease control, host wheat, 400 ppm (+++: 100 ppm).
Procedure: (§3) The test compounds were formulated for application by dissolving 50 mg of the compound into 1.25 ml of solvent. The solvent was prepared by mixing 50 ml of "Tween 20" (polyoxyethylene (20) sorbitan monolaurate emulsifier) with 475 ml of acetone and 475 ml of ethanol. The solvent/compound solution was diluted to 125 ml with deionized water. The resulting formulation contains 400 ppm test chemical. Lower concentrations were obtained by serial dilution with the solvent-surfactant mixture.
(§4) The formulated test compounds were applied by foliar spray. The following plant pathogens and their corresponding plants were employed.
Puccinia recondita PUCCRT wheat
(§5) The formulated technical compounds were sprayed on all foliar surfaces of the host plants to past run-off. Single pots of each host plant were placed on raised, revolving pedestals in a fume hood. Test solutions were sprayed on all foliar surfaces. All treatments were allowed to dry and the plants were inoculated with the appropriate pathogens within 24 hours.
(§6) The effectiveness of test compounds in controlling disease was rated using the following scale.
Assay [12] relates to Erysiphe graminis tritici (powdery mildew). As to the kind of experiment: Foliar spray fungicide test, Erysiphe graminis tritici (powdery mildew) on wheat. The settings on record: Blumeria graminis, in Triticum aestivum, foliar, read-out: ERYSGT disease control, host wheat, 400 ppm (+++: 100 ppm).
Procedure: as §3, §4, §5, §6
For assay [13], the system named is German cockroach (Blattella germanicus). As to the kind of experiment: whole plant or invertebrate. Type of assay: in vivo. Particulars: 240 h, ten days, read-out: GECR activity (rated on live and dead insects). As for the experimental part: as §1
GECR refers to German cockroach
as §2
Activity against German cockroach (Blattella germanicus) was evaluated as follows. 8 mL of alfalfa based green insect diet material was dispensed into a one ounce diet cup. The cups were then sprayed with formulated material through a flat-fan nozzle. The test was run using concentrations of 400 ppm and 50 ppm. Treated cups were air dried for 24 hours and infested with five late third or early fourth instar German cockroaches. The cups were capped and held for ten days in an environmental growth chamber at a temperature of […]. Activity was then rated based on the total number of live and dead insects.

For the molecule `Fc1cccc2c(OCCc3ccc(Oc4ccc(C(F)(F)F)cn4)cc3)ncnc12` [Compound 27, 8-Fluoro-4-(2-(4-(5-(trifluoromethyl)-2-pyridinyloxy)phenyl)ethoxy)quinazoline], the pest or weed control at 400 µg/mL was 90 to 100% in [1]; 90 to 100% in assay [9]; 0 to 19% in [10]; 90 to 100% in assay [11]; 90 to 100% in assay [12]. The mortality at 50 ppm in [2] came to 100%; in assay [6], 100%; in [7], 90%. Moreover, the mortality at 400 ppm in assay [2], in assay [7] and in [8] was 100% each time. Moreover, the pest or weed control at 50 ppm in [3] is 100%. Moreover, the pest or weed control at 400 ppm in assay [3] and in assay [5] was 100% each time. In addition, the mortality at 24 ppm in [4] turned out to be 100%.
`Fc1cccc2c(NCCc3ccc(Oc4ccc(C(F)(F)F)cn4)cc3)ncnc12` [Compound 28, 8-Fluoro-4-(2-(4-(5-(trifluoromethyl)-2-pyridinyloxy)phenyl)ethylamino)quinazoline]: the pest or weed control at 400 µg/mL in assay [1] lay within 20 to 89%; in assay [9], 90 to 100%; in [10], 90 to 100%; in [11], 90 to 100%; in assay [12], 90 to 100%. Also, the mortality at 50 ppm in assay [2] is 100%; in [13] it was 0%; in assay [7] it was 100%; in assay [8], 100%. Moreover, the mortality at 400 ppm was 100% in assay [2], 80% in [13], 100% in assay [7] and 100% in assay [8]. Besides, the pest or weed control at 50 ppm in assay [3] and in assay [5] was 100% each time. Moreover, the pest or weed control at 400 ppm in assay [3] and in [5] was 100% each time. In addition, the mortality at 24 ppm in assay [4] was determined as 0%.
Take `FC(F)(F)c1ccc(Oc2ccc(CCNc3ncnc4ccccc34)cc2)nc1` [Compound 29]: the pest or weed control at 400 µg/mL in assay [1] was in the range of 90 to 100%; in [9] it was 90 to 100%; in [10] it was 20 to 89%; in assay [11], 90 to 100%; in assay [12] it was 90 to 100%. Also, the mortality at 50 ppm came to 100% in assay [2], 0% in [13], 90% in assay [7] and 100% in [8]. Further, the mortality at 400 ppm in assay [2] came to 100%; in assay [13] it was 20%; in assay [7] it was 100%; in [8], 100%. Further, the pest or weed control at 50 ppm in assay [3] and in assay [5] was 100% each time. Moreover, the pest or weed control at 400 ppm in assay [3] and in assay [5] was 100% each time. In [4], the mortality at 24 ppm turned out to be 100%.
As for `Fc1cccc2c(OCCc3ccc(Oc4cc(C(Cl)(Cl)Cl)cc(Cl)n4)cc3)ncnc12` [Compound 34], the pest or weed control at 400 µg/mL in [1] fell in the range of 20 to 89%; in assay [9], 0 to 19%; in assay [10] it was 0 to 19%; in assay [11], 20 to 89%; in [12], 0 to 19%. Besides, the mortality at 50 ppm in [2] is 40%; in [13], 0%; in [7], 0%; in assay [8] it was 0%. Also, the mortality at 400 ppm in assay [2] is 20%; in assay [13], 0%; in assay [7] it was 0%; in assay [8] it was 0%. The pest or weed control at 50 ppm in assay [3] and in assay [5] was 0% each time. Moreover, the pest or weed control at 400 ppm in assay [3] stood at 100%; in assay [5] it was 80%. In addition, in assay [4], the mortality at 24 ppm was 0%.
`COc1cc(C(Cl)(Cl)Cl)cc(Oc2ccc(CCNc3ncnc4c(F)cccc34)cc2)n1` [Compound 35]: the pest or weed control at 400 µg/mL in assay [1] was 0 to 19%; in assay [9], 0 to 19%; in assay [10] it was 0 to 19%; in [11], 90 to 100%; in assay [12] it was 0 to 19%. In addition, the mortality at 50 ppm in assay [2], in assay [7] and in assay [8] was 0% each time. For the same molecule, the mortality at 400 ppm in assay [2] stood at 80%; in [13], 0%; in assay [7], 0%; in [8], 0%. The pest or weed control at 50 ppm was 100% in [3] and 0% in [5]. The pest or weed control at 400 ppm in [3] was found to be 100%; in [5] it was 80%. Moreover, the mortality at 24 ppm in assay [4] is 0%.
Take `c1cnc(Oc2ccc(CCOc3ncnc4ccccc34)cc2)nc1` [Compound 45]: the pest or weed control at 400 µg/mL lay within 90 to 100% in [1]; 90 to 100% in assay [9]; 0 to 19% in assay [10]; 90 to 100% in [11]; 90 to 100% in assay [12]. Also, the mortality at 50 ppm in [2] is 60%; in assay [13], 0%; in [7], 100%; in assay [8], 40%. Also, the mortality at 400 ppm turned out to be 40% in assay [2], 20% in [13], 100% in [7] and 60% in assay [8]. For the same molecule, the pest or weed control at 50 ppm in assay [3] and in [5] was 100% each time. Moreover, the pest or weed control at 400 ppm in [3] and in assay [5] was 100% in each case. In addition, the mortality at 24 ppm in [4] was 0%.

Values taken from patent US5326766A, “4-(2-(4-(2-pyridinyloxy)phenyl)ethoxy)quinazoline and analogues thereof” (priority 1992, dated 1994).
